Source: patent publication US20060051868A1, “Methods for increasing conifer somatic embryo initiation, capture, and multiplication” (priority 2001, published 2006)

Legend:
[1] = system: Loblolly pine megagametophytes; test: Initiation frequency of embryogenic cultures from Loblolly pine megagametophyte explants; assay type: cell-based
Procedure: Explants were megagametophytes isolated from Loblolly pine summer cones when embryos were at approximately stage 2-4. Seeds were. collected from four individual trees of diverse genotypes. Extracted seeds were soaked in running water for 10 minutes, agitated in 10% liquinox supplemented with 1.1 ml/l of Tween 20 for 10 minutes, and rinsed with water for 30 minutes. Seeds were sterilized in a laminar flow hood by agitating in 20% hydrogen peroxide for 10 minutes and rinsing with sterile deionized water. The seed coat, integuments, and nucellus were removed to isolate the megagametophytes. Culturing was performed in 24-well multi-well culture plates with each well having an approximate volume of 3.0 ml. Two ml of media was poured into each well.
Each replication consisted of eight adjacent wells on a multi-well plate, with one megagametophyte per well, providing three replications per multi-well plate. Twelve replications (for a total of 96 explants) were performed per treatment for each cone collection. The well plates were wrapped in Parafilm®, elastic wrap to minimize evaporation and incubated at 22-24° C. under dark conditions for nine weeks. Initiation frequency was scored for each dish by counting the number of explants which had successfully initiated embryogenic cultures.
The media treatments consisted of: (1) a control media #1043 (see Table 21); (2) media #1218, comprising media #1043 supplemented with 250 mg/l MES buffer; (3) media #1043 supplemented with 0.5 ppm folic acid and 0.05 ppm biotin; and (4) media #1218 supplemented with 0.5 ppm folic acid and 0.05 ppm biotin.
A representative procedure is shown for Loblolly pine. Experimental procedure follow similarly for other conifer but differ slightly in the composition of media used. […] Here, however, each treatment-genotype test consisted of ten replications of ten explants.
The cultures were covered and incubated in the dark at 24-26° C. for nine weeks.
Explants from four Loblolly pine cone collections were prepared and cultured as described in Example 2. The media treatments consisted of control media, #1218, which is media #1043 supplemented. with 250 mg/l MES, and four treatment media, which consist of media #1218 supplemented with 0.33, 1.0, 2.0, and 3.0 ppm paclobutrazol, respectively.
Four cone collections with embryos at stages 2-4 were used. Eighty explants from each cone collection on each media were tested. Seeds were removed from cones and soaked in running water for 10 min. Seeds were then agitated in 10% liquinox containing 1.1 ml/l Tween 20 for 10 min., and then rinsed with running tap water for 30 min. After transferring to a sterile hood, seeds were agitated in 20% H2O2 for 10 min., rinsed with sterile nanopure® H2O five times for 5 to 10 min. intervals, and then placed into a sterile petri dish for dissection. Seeds were dissected by splitting the seed coat, removing the integuments and nucellus. The megagametophyte was placed onto the appropriate medium. Each multi-well test plate contained 2 ml of solid media. Plates were incubated in the dark for 8 weeks and then scored.
The control media, media #1253, is described in detail in Table 16. All test media, #1275, #1421, #1422, and #1423 were comprised of the control media with the addition of a gibberellin inhibitor.

[2] = system: Loblolly pine embryogenic cultures; test: Growth of Loblolly pine embryogenic cultures from single somatic embryos (tissue diameter, area); assay type: cell-based; details: for Diameter of tissue (mm) / Approximate tissue area (mm^2): four weeks; for Diameter of tissue (mm): control 4.01; for Approximate tissue area (mm^2): control 12.6
Procedure: Three previously initiated Loblolly pine embryogenic cultures, each representing a different genotype, were grown in liquid media #1133, used as starting material for embryogenic cultures on various treatment media. Using a dissecting scope, individual stage 2 somatic embryos were extracted and placed on treatment media in the center of individual wells on a well plate. Forty embryos were prepared per treatment media, per genotype. Well plates were wrapped in Parafilm® and cultured under standard conditions at room temperature in the dark for four weeks. Embryogenic cultures derived from the single isolated embryos proliferated and spread over the surface of the culture medium. Spreading cultures were roughly circular in shape, radiating from the central embryo. At the end of four weeks, the growth of each culture was measured by measuring colony diameter using a dissecting scope ocular micrometer. Five treatment media were compared to control media #1043 (Table 21). Three media consisted of #1043 supplemented with paclobutrazol at concentrations of 0.33, 1.0 and 3.0 ppm. A B-vitamin treatment contained biotin at 0.05 ppm and folic acid at 0.5 ppm. […] The pH of media containing four different concentrations of MES was compared to that of a non-buffered control media during eight weeks of embryogenic culture growth. Maintenance cultures were established on treatment media using single isolated somatic embryos. Maintenance cultures were prepared and cultured essentially as described in Example 5. The control media was #1043. (See Table 21). The treatment media consisted of #1043 supplemented with 250, 500, 1000 and 1500 mg/l MES. Media pH was adjusted to 5.7 within all treatments prior to autoclaving, pouring and solidification. Immediately after pouring the media, and thereafter at two week intervals, media pH was measured up to the eighth week of culture growth. At each sampling time, four cultures from each media-genotype treatment were destructively sampled to measure the pH of the media directly underlying the growing embryogenic tissue. This experiment measured the effects of ABA, vitamins, culturing in a closed container, and culturing at increased atmospheric pressure on the growth of embryogenic cultures. Maintenance cultures were prepared on well plates using single somatic embryos, essentially as described in Example 5.

SMILES	Initiation Frequency (%) ([1]; 0.33 ppm in buffered media #1218 (Media 1043 + 250 mg/l MES), control 40.5)	Initiation Frequency (%) ([1]; 0.33 ppm in media #1043, nine weeks, control 39.1)	Initiation Frequency (%) ([1]; 1.0 ppm in buffered media #1218 (Media 1043 + 250 mg/l MES), control 40.5)	Initiation Frequency (%) ([1]; 2.0 ppm in buffered media #1218 (Media 1043 + 250 mg/l MES), control 40.5)	Initiation Frequency (%) ([1]; 3.0 ppm in buffered media #1218 (Media 1043 + 250 mg/l MES), control 40.5)	Initiation Frequency (%) ([1]; base media #1253, 1.0 ppm paclobutrazol, 0.1062 ppm flurprimidol, 1.58 ppm chlormequat-Cl, 0.16 ppm succinic acid-dh, 8 weeks, dark, control 29.5)	Extrusion (%) ([1]; base media #1253, 1.0 ppm paclobutrazol, 0.1062 ppm flurprimidol, 1.58 ppm chlormequat-Cl, 0.16 ppm succinic acid-dh, 8 weeks, dark, control 58.6)	Diameter of tissue (mm) ([2]; 0.33 ppm in media #1043)	Approximate tissue area (mm^2) ([2]; 0.33 ppm in media #1043)	Diameter of tissue (mm) ([2]; 1.0 ppm in media #1043)	Approximate tissue area (mm^2) ([2]; 1.0 ppm in media #1043)	Diameter of tissue (mm) ([2]; 3.0 ppm in media #1043)	Approximate tissue area (mm^2) ([2]; 3.0 ppm in media #1043)	Initiation Frequency (%) ([1]; base media #1043, MES 250 mg/l, vitamins = 0.5 ppm folic acid + 0.05 ppm biotin, nine weeks, dark, control 42.9)	Growth of cultures, as measured by culture diameter, relative to the control ([2]; 250 mg/l MES in media #1043)	Growth of cultures, as measured by culture diameter, relative to the control ([2]; higher concentrations of MES (500, 1000, 1500 mg/l) in media #1043)
CC(C)(C)[C@@H](O)[C@@H](Cc1ccc(Cl)cc1)n1cncn1 (racemic) [paclobutrazol]	46.8	37.3	46.0	46.1	44.7	35.3	58.1	4.13	13.4	5.00	19.6	5.23	21.5	–	–	–
O=S(=O)(O)CCN1CCOCC1 [MES, 2-(N-morpholino)-ethanesulfonic acid]	–	–	–	–	–	–	–	–	–	–	–	–	–	47.7	increased	inhibited
